Measured values as given in publication PMC12268434 (ACS Omega, 2025).

What was measured:
U-87 MG cells = assay: Flow cytometry; type: cell-based, human; settings: IC50 concentrations, 24 h
U-87 MG glioma cells = assay: CCK-8 cell viability assay, U-87 MG; type: cell-based, human; settings: U-87 MG glioma / glioblastoma cells

Row | SMILES | induction of apoptosis (Annexin V-FITC/PI, in words) (U-87 MG cells) | cytotoxic activity (in words) (U-87 MG glioma cells)
1 | COc1cccc2c1C(=O)c1c(O)c3c(c(O)c1C2=O)C[C@@](O)(C(=O)CO)C[C@@H]3O[C@H]1C[C@H](N)[C@H](O)[C@H](C)O1 [DOX, doxorubicin] | induce apoptosis | 
2 | COc1c(O)cc2ccc3cc(O)ccc3c2c1OC [compound 6, nudol] |  | no cytotoxic activity
3 | COc1c(O)cc2c(c1OC)-c1ccc(O)cc1CC2 [compound 7, erianthridin] |  | no cytotoxic activity
